Assays:
Assay type in all cases: functional
SF-268 = test: Cytotoxicity against human SF268 cells after 48 hrs by SRB assay; settings: SF-268, 48 h
IGROV-1 = test: Cytotoxicity against human IGROV1 cells after 48 hrs by SRB assay; settings: IGROV-1, 48 h
MDA-MB-231 = test: Cytotoxicity against human MDA-MB-231 cells after 48 hrs by SRB assay; settings: MDA-MB-231, 48 h
TK-10 = test: Cytotoxicity against human TK10 cells after 48 hrs by SRB assay; settings: TK-10, 48 h
MDA-MB-435 = test: Cytotoxicity against human MDA-MB-435 cells after 48 hrs by SRB assay; settings: MDA-MB-435, 48 h
OVCAR-8 = test: Cytotoxicity against human OVCAR8 cells after 48 hrs by SRB assay; settings: OVCAR-8, 48 h
UO-31 = test: Cytotoxicity against human UO31 cells after 48 hrs by SRB assay; settings: UO-31, 48 h
SK-OV-3 = test: Cytotoxicity against human SKOV3 cells after 48 hrs by SRB assay; settings: SK-OV-3, 48 h
T47D = test: Cytotoxicity against human T47D cells after 48 hrs by SRB assay
HOP-62 = test: Cytotoxicity against human HOP62 cells after 48 hrs by SRB assay; settings: HOP-62, 48 h
SW-620 = test: Cytotoxicity against human SW620 cells after 48 hrs by SRB assay; settings: SW-620, 48 h
U-251 = test: Cytotoxicity in human U251 cells after 48 hrs by SRB assay; settings: U-251, 48 h
MCF7 = test: Cytotoxicity against human MCF7 cells after 48 hrs by SRB assay; settings: MCF7, 48 h
SNB-75 = test: Cytotoxicity against human SNB75 cells after 48 hrs by SRB assay; settings: SNB-75, 48 h
[1] = Cytotoxicity against human Hs 578T cells after 48 hrs by SRB assay
RXF 393 = test: Cytotoxicity against human RXF393 cells after 48 hrs by SRB assay; settings: RXF 393, 48 h
SF-539 = test: Cytotoxicity against human SF539 cells after 48 hrs by SRB assay; settings: SF-539, 48 h
NCI-H226 = test: Cytotoxicity against human NCI-H226 cells after 48 hrs by SRB assay; settings: NCI-H226, 48 h
K562 = test: Cytotoxicity against human K562 cells after 48 hrs by SRB assay; settings: K562, 48 h
MOLT-4 = test: Cytotoxicity against human MOLT4 cells after 48 hrs by SRB assay; settings: MOLT-4, 48 h
HCT-15 = test: Cytotoxicity against human HCT15 cells after 48 hrs by SRB assay; settings: HCT-15, 48 h
SF-295 = test: Cytotoxicity against human SF295 cells after 48 hrs by SRB assay; settings: SF-295, 48 h
CCRF-CEM = test: Cytotoxicity in human CCRF-CEM cells after 48 hrs by SRB assay
ACHN = test: Cytotoxicity against human ACHN cells after 48 hrs by SRB assay
PC-3 = test: Cytotoxicity against human PC3 cells after 48 hrs by SRB assay; settings: PC-3, 48 h
SK-MEL-5 = test: Cytotoxicity against human SK-MEL-5 cells after 48 hrs by SRB assay; settings: SK-MEL-5, 48 h
NCI-H522 = test: Cytotoxicity against human NCI-H522 cells after 48 hrs by SRB assay; settings: NCI-H522, 48 h
NCI/ADR-RES = test: Cytotoxicity against human NCI/ADR-RES cells after 48 hrs by SRB assay
786-0 = test: Cytotoxicity against human 786-0 cells after 48 hrs by SRB assay; settings: 786-0, 48 h
OVCAR-4 = test: Cytotoxicity against human OVCAR4 cells after 48 hrs by SRB assay; settings: OVCAR-4, 48 h
RPMI-8226 = test: Cytotoxicity against human RPMI8226 cells after 48 hrs by SRB assay; settings: RPMI-8226, 48 h
UACC-257 = test: Cytotoxicity against human UACC257 cells after 48 hrs by SRB assay; settings: UACC-257, 48 h
MDA-MB-468 = test: Cytotoxicity against human MDA-MB-468 cells after 48 hrs by SRB assay; settings: MDA-MB-468, 48 h
HOP-92 = test: Cytotoxicity against human HOP92 cells assessed as cell growth at 10 uM after 48 hrs by SRB assay relative to control; settings: HOP-92, 48 h, read-out: Activity
[2] = read-out: LC50 (the source's name)

Cn1c2ccccc2c2c3nc(N)[nH]c(=O)c3c3c4ccccc4n(C)c3c21
GI50 (SF-268): 15.8 µM
TGI (SF-268): > 100 µM
CC50 (SF-268; [2]): > 100 µM
GI50 (IGROV-1): 31.3 µM
TGI (IGROV-1): > 100 µM
CC50 (IGROV-1; [2]): > 100 µM
GI50 (MDA-MB-231): 93 µM
TGI (MDA-MB-231): > 100 µM
CC50 (MDA-MB-231; [2]): > 100 µM
GI50 (TK-10): 7.14 µM
TGI (TK-10): > 100 µM
CC50 (TK-10; [2]): > 100 µM
GI50 (MDA-MB-435): 3.39 µM
TGI (MDA-MB-435): 22.3 µM
CC50 (MDA-MB-435; [2]): > 100 µM
GI50 (OVCAR-8): 3.82 µM
TGI (OVCAR-8): > 100 µM
CC50 (OVCAR-8; [2]): > 100 µM
GI50 (UO-31): 1.37 µM
TGI (UO-31): > 100 µM
CC50 (UO-31; [2]): > 100 µM
GI50 (SK-OV-3): 3.56 µM
TGI (SK-OV-3): > 100 µM
CC50 (SK-OV-3; [2]): > 100 µM
GI50 (T47D): 5.1 µM
TGI (T47D): > 100 µM
CC50 (T47D; [2]): > 100 µM
GI50 (HOP-62): 41 µM
TGI (HOP-62): > 100 µM
CC50 (HOP-62; [2]): > 100 µM
GI50 (SW-620): 4.05 µM
TGI (SW-620): > 100 µM
CC50 (SW-620; [2]): > 100 µM
GI50 (U-251): 6.38 µM
TGI (U-251): > 100 µM
CC50 (U-251; [2]): > 100 µM
GI50 (MCF7): 2.13 µM
TGI (MCF7): 44.1 µM
CC50 (MCF7; [2]): > 100 µM
GI50 (SNB-75): 66.6 µM
TGI (SNB-75): > 100 µM
CC50 (SNB-75; [2]): > 100 µM
GI50 [1]: 10.2 µM
TGI [1]: > 100 µM
CC50 [1, 2]: > 100 µM
GI50 (RXF 393): 7.47 µM
TGI (RXF 393): 37.6 µM
CC50 (RXF 393; [2]): > 100 µM
GI50 (SF-539): 18.4 µM
TGI (SF-539): 56.6 µM
CC50 (SF-539; [2]): > 100 µM
GI50 (NCI-H226): 30.6 µM
TGI (NCI-H226): > 100 µM
CC50 (NCI-H226; [2]): > 100 µM
GI50 (K562): 3.93 µM
TGI (K562): 40.3 µM
CC50 (K562; [2]): > 100 µM
GI50 (MOLT-4): 6.09 µM
TGI (MOLT-4): > 100 µM
CC50 (MOLT-4; [2]): > 100 µM
GI50 (HCT-15): 1.98 µM
TGI (HCT-15): > 100 µM
CC50 (HCT-15; [2]): > 100 µM
GI50 (SF-295): 3.68 µM
TGI (SF-295): 12.9 µM
CC50 (SF-295; [2]): 76.7 µM
GI50 (CCRF-CEM): 3.41 µM
TGI (CCRF-CEM): > 100 µM
CC50 (CCRF-CEM; [2]): > 100 µM
GI50 (ACHN): 1.11 µM
TGI (ACHN): > 100 µM
CC50 (ACHN; [2]): > 100 µM
GI50 (PC-3): 5.54 µM
TGI (PC-3): > 100 µM
CC50 (PC-3; [2]): > 100 µM
GI50 (SK-MEL-5): 3.25 µM
TGI (SK-MEL-5): 13.7 µM
CC50 (SK-MEL-5; [2]): 37.9 µM
GI50 (NCI-H522): 14.5 µM
TGI (NCI-H522): > 100 µM
CC50 (NCI-H522; [2]): > 100 µM
GI50 (NCI/ADR-RES): 3.87 µM
TGI (NCI/ADR-RES): > 100 µM
CC50 (NCI/ADR-RES; [2]): > 100 µM
GI50 (786-0): 7.7 µM
TGI (786-0): 54.4 µM
CC50 (786-0; [2]): > 100 µM
GI50 (OVCAR-4): 16.8 µM
TGI (OVCAR-4): > 100 µM
CC50 (OVCAR-4; [2]): > 100 µM
GI50 (RPMI-8226): 11.1 µM
TGI (RPMI-8226): 65.6 µM
CC50 (RPMI-8226; [2]): > 100 µM
GI50 (UACC-257): 12.8 µM
TGI (UACC-257): 32 µM
CC50 (UACC-257; [2]): 79.7 µM
GI50 (MDA-MB-468): 21.7 µM
TGI (MDA-MB-468): 75.1 µM
CC50 (MDA-MB-468; [2]): > 100 µM

Cn1cc(-c2[nH]c(=S)[nH]c(=O)c2-c2cn(C)c3ccccc23)c2ccccc21
growth at 10 µM (HOP-92): 69.8%
